Patent US20160151461A1, “Cardio-Metabolic and Vascular Effects of GLP-1 Metabolites” (THE TRUSTEES OF THE UNIVERSITY OF PENNSYLVANIA, priority 2013, published 2016)
No end group written: not given here.

Tests used:
[1] = system: conscious chronically instrumented dogs with pacing induced heart failure; test: pacing induced model of dilated cardiomyopathy in conscious chronically instrumented dogs (72 hours of rapid ventricular pacing); type: in vivo; details: after 72 hours of rapid ventricular pacing, vs Control
Procedure: In order to compare the vasoactive effects of different classes of incretins, experiments were designed to study the pacing induced model of dilated cardiomyopathy in conscious chronically instrumented dogs (FIG. 3). These animals were instrumented to examine the effects of equal concentrations of various classes of incretins on coronary blood flow and renal blood flow. All dogs underwent 72 hours of rapid ventricular pacing following which coronary flow responses were measured (Control). Rapid pacing was associated with 30-35% declines in coronary blood flow and renal blood flow respectively. […] This supports the notion that the native peptide and active metabolites have vasoactive as well as glucose-stimulatory properties. The renal vascular effects support the claims for use in heart failure complicated by renal failure (cardio-renal syndrome). The coronary vasodilator properties support the claims for the use in acute coronary syndromes and microvascular angina.

[2] = system: AMP kinase; test: isolated isovolumic rat heart, activation of AMP kinase; details: for AMPK activation in presence of EXE (inhibits activation of the GLP-1 receptor): with EXE; for AMPK activation in presence of pertussus toxin (PTX): with PTX (Gi); for AMPK activation in presence of STO609 (CAM kinase): with STO609
From the text: It is largely unknown how GLP-1 stimulates glucose uptake independent of insulin. A candidate mechanism involves the activation of AMP kinase which causes GLUT translocation and glucose uptake independent of insulin. The isolated isovolumic rat heart was studied as a model in which myocardial specific responses can be observed (FIG. 4).

[3] = system: conscious, chronically instrumented dogs; test: rapid pacing induced stress (72 hour) in conscious, chronically instrumented dogs, hemodynamic measurements; type: in vivo; details: 72 hours rapid pacing stress, vs sham vehicle
From the text: FIG. 7 illustrates characteristic instrumentation of conscious, chronically instrumented dogs studied in the laboratory. Under sterile surgical technique, the animals are instrumented as indicated and allowed to recover fully from their surgery. LV, aortic, and left atrial catheters were used to measure pressures. LV Konigsberg® transducer was used to measure isovolumic contractility and relaxation as measures of systolic and diastolic function. Ultrasonic dimension crystals were used to measure LV shortening and LV filling rates. Pacing leads were attached to the left atrial appendage. Transonics® flow probes were placed around the left circumflex coronary artery and right renal artery to measure coronary and renal blood flow.
Experiments were performed where 25 conscious, chronically instrumented dogs (FIG. 7) were subjected to a rapid pacing induced stress which recapitulates the hemodynamic perturbations experienced by patients with sudden onset of paroxysmal atrial fibrillation (FIG. 8). Dogs were studied before and daily during the 72 hour pacing stress. […] All measurements were made during intrinsic sinus rhythm 20-30 minutes after cessation of pacing. Hemodynamic measurements included: • LV systolic and diastolic pressures, mean arterial pressures, heart rate • Systolic function: LV contractility (systolic contractile function), LV fractional shortening • Diastolic function: LV isovolumic relaxation time constant, LV filling rate • Flows: systemic, coronary and renal blood flows

[4] = system: myocardium; donor organs; test: myocardial glucose uptake and preconditioning of donor organs against ischemic injury (summary statement)
[5] = in vivo; cited from earlier work
[6] = system: patients with advanced heart failure; details: 5 weeks of continuous infusion, NYHA Class IIIB and IV; cited from earlier work
[7] = system: patients with mild heart failure; details: infused for 48 hours, NYHA Class II; cited from earlier work
[8] = system: advanced heart failure; details: cited from earlier work
[9] = system: large animal models of advanced heart failure; details: cited from earlier work
[10] = system: normal, conscious, chronically instrumented dogs; test: hyperglycemic clamp studies in normal, conscious, chronically instrumented dogs; type: in vivo
Procedure: To determine the effect of GLP-1 (32-36) on coronary blood flow, hyperglycemic clamp studies were conducted in normal, conscious, chronically instrumented dogs (n=3), in which plasma glucose was raised to 180 mg/dl by continuous infusion of glucose (FIG. 1). The plasma glucose concentration was monitored continuously as was plasma insulin response. In the control studies, the 5 dogs underwent the 3 hour hyperglycemic clamp. On a separate occasion, the same animals underwent a 3 hour hyperglycemic clamp in which GLP-1 (32-36) was infused beginning in the second hour.
Myocardial glucose uptake is calculated as the product of the difference in the arterial-coronary sinus glucose content and the average coronary blood flow. The increase in myocardial glucose uptake is in excess of that attributable to the increase in coronary blood flow alone.

Question: With “Glu-Gly-Thr-Phe-Thr-Ser-Asp-Val-Ser-Ser-Tyr-Leu-Glu-Gly-Gln-Ala-Ala-Lys-Glu-Phe-Ile-Ala-Trp-Leu-Val-Lys-Gly-Arg (EGTFTSDVSSYLEGQAAKEFIAWLVKGR-NH2) [GLP-1 (9-36) amide]” as the substance, how does the coronary blood flow [1] read?
Answer: The coronary blood flow was “preserved coronary and renal blood flow to a greater extent than seen in control”.

Question: And the renal blood flow [1]?
Answer: Its renal blood flow is “preserved coronary and renal blood flow to a greater extent than seen in control”.

Question: And the “phosphorylation and activation of AMP kinase” value ([2]; 60 minutes of perfusion)?
Answer: Its value is “increased the phosphorylation and the activation of AMP kinase”.

Question: And the “AMPK activation in presence of EXE (inhibits activation of the GLP-1 receptor)” value [2]?
Answer: The value was “GLP-1 receptor independent”.

Question: What about the “AMPK activation in presence of EXE (inhibits activation of the GLP-1 receptor)” value ([2]; listed as GLP-1 (9-36)) of the same substance?
Answer: The value was “not blocked”.

Question: What about the “AMPK activation under neuroendopeptidase inhibition (NEPI)” value ([2]; with NEPI) of the same substance?
Answer: The value was “abolished”.

Question: And the “AMPK activation in presence of pertussus toxin (PTX)” value [2]?
Answer: Its value is “pertussus toxin (Gi) and Ca-Calmodulin dependent”.

Question: What about the “AMPK activation in presence of pertussus toxin (PTX)” value ([2]; listed as GLP-1 (9-36)) of the same substance?
Answer: The value was “blocked by pertussus toxin”.

Question: And the “AMPK activation in presence of STO609 (CAM kinase)” value [2]?
Answer: The value was “pertussus toxin (Gi) and Ca-Calmodulin dependent”.

Question: And the “AMPK activation in presence of STO609 (CAM kinase)” value ([2]; listed as GLP-1 (9-36))?
Answer: The value was “blocked by STO609”.

Question: And the “LV systolic and diastolic function” value [3]?
Answer: The value was “mitigated the declines”.

Question: What about the coronary blood flow [3] of the same substance?
Answer: The coronary blood flow was “preserved”.

Question: What about the renal blood flow [3] of the same substance?
Answer: The renal blood flow was “preserved”.

Question: What about the systemic vascular resistance [3] of the same substance?
Answer: The systemic vascular resistance was “mitigated the declines in LV systolic and diastolic function and the rise”.

Question: What about the “preconditioning donor organs against ischemic injury” value [4] of the same substance?
Answer: Its value is “active”.

Question: What about the “stimulating glucose uptake into myocardium in a non-insulin dependent fashion” value [4] of the same substance?
Answer: Its value is “active”.

Question: With Glucagon-like peptide-1 [GLP-1] as the substance, how does the active half-life time [5] read?
Answer: The active half-life time was 1 to 2 min.

Question: And the “half-life time in blood” value [5]?
Answer: Its value is no more than 5 min.

Question: For “His-Ala-Glu-Gly-Thr-Phe-Thr-Ser-Asp-Val-Ser-Ser-Tyr-Leu-Glu-Gly-Gln-Ala-Ala-Lys-Glu-Phe-Ile-Ala-Trp-Leu-Val-Lys-Gly-Arg [GLP-1 (7-36) amide]”, which coronary blood flow [1] is on record?
Answer: The coronary blood flow was “preserved coronary and renal blood flow to a greater extent than seen in control”.

Question: And the renal blood flow [1]?
Answer: The renal blood flow was “preserved coronary and renal blood flow to a greater extent than seen in control”.

Question: And the “LV systolic and diastolic function” value [3]?
Answer: Its value is “mitigated the declines”.

Question: And the coronary blood flow [3]?
Answer: Its coronary blood flow is “preserved”.

Question: And the renal blood flow [3]?
Answer: Its renal blood flow is “preserved”.

Question: What about the systemic vascular resistance [3] of the same substance?
Answer: The systemic vascular resistance was “mitigated the declines in LV systolic and diastolic function and the rise”.

Question: What about the functional outcomes [6] of the same substance?
Answer: The functional outcomes was “improved functional outcomes”.

Question: And the benefit [7]?
Answer: The benefit was “no benefit”.

Question: And the “elevated levels of plasma glucagon” value [8]?
Answer: Its value is “suppresses”.

Question: What about the insulin action [8] of the same substance?
Answer: Its insulin action is “augments”.

Question: What about the “expression of mitochondrial uncoupling protein 3 (UCP-3) and mitochondrial cytochrome oxidase (Complex IV)” value ([9]; in vivo, iv) of the same substance?
Answer: Its value is “increased”.

Question: And the “mitochondrial reactive oxygen species (ROS) generation” value ([9]; in vivo)?
Answer: Its value is “decreased”.

Question: And the “cell survival pathways (ras dependent activation of p38 MAP kinase, induction of NOS2)” value ([9]; independent of insulin signaling pathways)?
Answer: The value was “activates”.

Question: With “Leu-Val-Lys-Gly-Arg (LVKGR-NH2) [GLP-1 (32-36) amide]” as the substance, how does the “increase in coronary blood flow” value ([10]; 3 hour hyperglycemic clamp, plasma glucose 180 mg/dl, peptide infused beginning in the second hour, vs control clamp) read?
Answer: The value was “significantly greater increase”.

Question: And the “increase in myocardial glucose uptake” value ([10]; hyperglycemic clamp, matched hyperinsulinemia, vs control)?
Answer: The value was “significantly greater increase”.

Question: What about the “preconditioning donor organs against ischemic injury” value [4] of the same substance?
Answer: The value was “active”.

Question: What about the “stimulating glucose uptake into myocardium in a non-insulin dependent fashion” value [4] of the same substance?
Answer: The value was “active”.
